Values quoted from earlier work as cited in patent US10987305B2, “Preparation of respirable zafirlukast particles” (Hovione Scientia Limited, priority 2015, dated 2021).

Assays:
[1] = as disclosed in US 5,504,216 and related patents
[2] = as disclosed in US 5,504,216 and related patents; remark: listed apart in the source

Row | Structure (SMILES) | Physical stability [1] | Bioavailability [2]
1 | COc1cc(C(=O)NS(=O)(=O)c2ccccc2C)ccc1Cc1cn(C)c2ccc(NC(=O)OC3CCCC3)cc12 [crystalline anhydrous form, zafirlukast] | physically stable | relatively poor bioavailability
2 | COc1cc(C(=O)NS(=O)(=O)c2ccccc2C)ccc1Cc1cn(C)c2ccc(NC(=O)OC3CCCC3)cc12 [amorphous form, zafirlukast] | less physically stable | most bioavailable
3 | COc1cc(C(=O)NS(=O)(=O)c2ccccc2C)ccc1Cc1cn(C)c2ccc(NC(=O)OC3CCCC3)cc12 [crystalline monohydrate form, zafirlukast] | physically stable | relatively poor bioavailability
